Among the data in patent US7786152B2, “Compound” (priority 2002, dated 2010) are inhibition and IC50 values, retold here.

The assay addresses T1, 11 β-HSD type 1 (Rattus norvegicus, UniProt P16232).
T1 construct: Both the kidneys and livers were homogenised on ice in PBS-sucrose buffer; tissue Harlan Olac (rats); host or cells: Wistar rat liver homogenate supernatant
Kind of assay: 11 β-HSD type 1 inhibition, rat liver homogenate, conversion E to F (radiometric TLC). The conditions noted are these: for inhibition at 10 µM: read-out: % inhibition of 11β HSD1 @ 10 μM, 10 μM, typical sd ± 5%, means n=2; for IC50: dose-response 1, 5, 10 and 20 μM, read-out: IC50 (11β HSD1). In kind it is biochemical. How it is done:
Enzymes—Rat livers and rat kidneys were obtained from normal Wistar rats (Harlan Olac, Bicester, Oxon, UK). Both the kidneys and livers were homogenised on ice in PBS-sucrose buffer (1 g/10 ml) using an Ultra-Turrax. After the livers and kidneys were homogenised the homogenate was centrifuged for five minutes at 4000 rpm. The supernatant obtained was removed and stored in glass vials at −20° C. The amount of protein per μl of rat liver and kidney cytosol was determined using the Bradford method.
11 β-HSD type 1 is the enzyme responsible for the conversion E to F and this type of enzyme is present in rat liver. The substrate solution used in this assay contained 70,000 cpm/ml ^3H-E in PBS-sucrose and 0.5 μM of unlabelled E and co-factor NADPH (9 mg/10 ml of substrate solution). 1 ml of the substrate solution and the different amounts of rat liver homogenate was added to all tubes.
The amount of rat liver homogenate needed for an assay was determined by incubating the substrate solution with 25, 50, 100 and 150 μl for 30, 60, 90 and 120 minutes at 37° C. in a water bath with the tubes being mechanically shaken. After the incubation 50 μL of recovery solution was added, containing about 8,000 cpm/50 μL of ^14C—F and 50 μg/50 μL of unlabelled F for visualising the spot on the TLC-plate, to correct for the losses made in the next two steps. F was then extracted from the aqueous phase with 4 ml of ether (2×30 sec cycle, vortex mix). The aqueous phase was then frozen using dry-ice and the organic layer was decanted and poured into smaller tubes and evaporated. 6 drops of ether were then added to the small tubes to re-dissolve the residue which was transferred to an aluminium thin layer chromatography plate (TLC-plate). The TLC-plate was developed in a TLC tank under saturated conditions. The solvent system used was chloroform:methanol 9:1 (v/v). The F spots on the TLC-plate were visualised under UV-light and cut out from the TLC-plate (Rf=0.45). The spots from the TLC-plate were then put into scintillation vials and 0.5 ml of methanol was added to all vials to elute the radioactivity from the TLC-plate for 5 minutes. 10 ml of Ecoscint was added to the scintillation vials and they were put into the scintillation counter to count amount of product formed.
In these assays the influence of different inhibitors on the 11 β-HSD activity both in reductive (type 1) and oxidative (type 2) directions were assessed. In the reductive direction E is the substrate and F the product and visa versa in the case of oxidation. The method described here is for the oxidative direction.
The substrate solution contained about 50,000 cpm/ml ^3H—F in PBS-sucrose and 0.5 μM F. 1 ml of the substrate solution was added to each tube, the inhibitors were also added, at a 10 μM concentration, to each tube except to the “control” and “blank” tubes. 150 μL was added to all tubes except to the blanks, this was done to correct for the amount of ^3H—F spontaneously formed. The tubes were incubated for 60 minutes in a mechanically shaken water bath at 37° C. The amount of kidney liver homogenate and incubation time used resulted from the enzyme- and time-dependency assay. After incubation 50 μL of recovery was added to correct for the losses made in the next steps, containing 5000 cpm/50 μL of ^14C-E and 50 μg/50 μL of unlabelled E (to visualise the spot on the TLC-plate). The aqueous mixture was then extracted with 4 ml of ether (2×30 sec cycle, vortex mix). After freezing the aqueous phase, the ether (upper) layer was decanted into smaller tubes and evaporated at 45° C. until completely dry. The residue was then re-dissolved in 6 drops of ether and transferred to a TLC-plate. The TLC-plate was developed in chloroform:methanol (9:1 v/v) solvent system, the TLC-plate ran for about 90 minutes until the solvent front had moved about 18 cm. The position of the product E was visualised under UV-light and cut out from the TLC-plate and put into scintillation vials. […]

T1 sequence (P16232 whole entry): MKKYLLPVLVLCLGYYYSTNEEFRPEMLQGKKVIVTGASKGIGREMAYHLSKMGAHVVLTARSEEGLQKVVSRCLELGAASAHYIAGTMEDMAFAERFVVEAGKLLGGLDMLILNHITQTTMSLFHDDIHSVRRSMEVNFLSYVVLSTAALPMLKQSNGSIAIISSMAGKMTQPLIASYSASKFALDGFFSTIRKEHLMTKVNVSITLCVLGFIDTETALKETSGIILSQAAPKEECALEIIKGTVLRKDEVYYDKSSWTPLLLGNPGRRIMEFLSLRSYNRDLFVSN

Usually inhibition stands for the drop in the measured response relative to a control, in per cent. On to `Cc1nc2cc(NS(=O)(=O)c3ccc(Cl)cc3Cl)ccc2s1` [compound 412], for which the inhibition at 10 µM was 27%.

The term IC50 denotes the concentration that gives 50% inhibition. In the case of `Cc1nc2cc(NS(=O)(=O)c3cccc(Cl)c3C)ccc2s1` [compound 413], the IC50 was determined as 6.6 µM and the inhibition at 10 µM was found to be 53%.

For the compound `CCCc1ccc(S(=O)(=O)Nc2ccc3sc(C)nc3c2)cc1` [compound 421], the IC50 is 10 µM and the inhibition at 10 µM was 60%.

Take `COc1ccc(S(=O)(=O)Nc2ccc3sc(C)nc3c2)cc1` [compound 424]: the inhibition at 10 µM was determined as 24%.

Regarding `Cc1nc2cc(NS(=O)(=O)c3c(C)cccc3Cl)ccc2s1` [compound 425], the inhibition at 10 µM came to 40%.

On to `Cc1nc2cc(N(C)S(=O)(=O)c3cccc(Cl)c3C)ccc2s1` [compound 469], for which the inhibition at 10 µM turned out to be 63%.

Consider `CCN(c1ccc2sc(C)nc2c1)S(=O)(=O)c1cccc(Cl)c1C` [compound 470], for which the inhibition at 10 µM amounted to 39%.

`Cc1nc2cc(NS(=O)(=O)c3ccc(Br)cc3)ccc2s1` [compound 519]: the inhibition at 10 µM was determined as 48%.

`Cc1nc2cc(NS(=O)(=O)c3ccc(-c4ccccc4)cc3)ccc2s1` [compound 521]: the inhibition at 10 µM stood at 0.5%.

For the compound `Cc1nc2cc(NS(=O)(=O)c3c(Cl)cc(Cl)cc3Cl)ccc2s1` [compound 522], the inhibition at 10 µM is 37%.

With `Cc1nc2cc(NS(=O)(=O)c3ccc(Br)cc3C)ccc2s1` [compound 523], the inhibition at 10 µM is 21%.

`Cc1nc2cc(NS(=O)(=O)c3cccc4cccnc34)ccc2s1` [compound 552]: the inhibition at 10 µM is 18%.

As to `Cc1nc2cc(NS(=O)(=O)c3cccc4ccccc34)ccc2s1` [compound 553], the inhibition at 10 µM worked out at 0.7%.

Consider `Cc1nc2cc(NS(=O)(=O)c3cccc4c(N(C)C)cccc34)ccc2s1` [compound 554], for which the inhibition at 10 µM was determined as 69%.

As for `Cc1nc2cc(NS(=O)(=O)c3cc(Cl)ccc3Cl)ccc2s1` [compound 580], the inhibition at 10 µM turned out to be 75%.

In the case of `Cc1nc2cc(NS(=O)(=O)c3ccc4c(c3)CN(C(=O)C(F)(F)F)CC4)ccc2s1` [compound 581], the inhibition at 10 µM was found to be 77%.

For the compound `COc1ccc(Cl)cc1S(=O)(=O)Nc1ccc2sc(C)nc2c1` [compound 582], the inhibition at 10 µM came out at 40%.

Regarding `Cc1nc2cc(NS(=O)(=O)c3ccccc3C#N)ccc2s1` [compound 583], the inhibition at 10 µM came out at 29%.

In the case of `COc1cc(C)ccc1S(=O)(=O)Nc1ccc2sc(C)nc2c1` [compound 584], the inhibition at 10 µM came out at 48%.

As to `Cc1nc2cc(NS(=O)(=O)c3ccc(Oc4ccccc4)cc3)ccc2s1` [compound 585], the inhibition at 10 µM came to 48%.

As for `CC(=O)c1ccccc1S(=O)(=O)Nc1ccc2sc(C)nc2c1` [compound 701], the inhibition at 10 µM worked out at 34%.

With `Cc1nc2cc(NS(=O)(=O)c3c(C(C)C)cc(C(C)C)cc3C(C)C)ccc2s1` [compound 703], the inhibition at 10 µM worked out at 35%.

For `Cc1nc2cc(NS(=O)(=O)c3ccc(C(C)C)cc3)ccc2s1` [compound 704], the inhibition at 10 µM amounted to 38%.

With `COC(=O)c1ccccc1S(=O)(=O)Nc1ccc2sc(C)nc2c1` [compound 705], the inhibition at 10 µM came to 6%.

In the case of `COc1c(C)c(C)c(S(=O)(=O)Nc2ccc3sc(C)nc3c2)c(C)c1C` [compound 708], the inhibition at 10 µM worked out at 39%.

As for `Cc1nc2cc(NS(=O)(=O)c3ccc(C(C)(C)C)cc3)ccc2s1` [compound 709], the inhibition at 10 µM stood at 10%.

In the case of `Cc1nc2cc(NS(=O)(=O)c3c(C)c(C)c(C)c(C)c3C)ccc2s1` [compound 710], the inhibition at 10 µM was 55%.

As to `CCSc1nc2ccc(NS(=O)(=O)c3cccc(Cl)c3C)cc2s1` [compound 751], the inhibition at 10 µM was found to be 10%.
